These results are taken from patent US12060347B2 (BRISTOL-MYERS SQUIBB COMPANY, priority 2016, dated 2024).

The term IC50 denotes the midpoint of a concentration-inhibition curve.

For this experiment, the target named is T1, human PAR4 (Homo sapiens, UniProt Q96RI0).
T1 construct: expressed in transfected cells; host or cells: HEK293 PAR4 Clone 1.2A (BMS Arctic ID 383940)
T1 sequence (Q96RI0 18-385): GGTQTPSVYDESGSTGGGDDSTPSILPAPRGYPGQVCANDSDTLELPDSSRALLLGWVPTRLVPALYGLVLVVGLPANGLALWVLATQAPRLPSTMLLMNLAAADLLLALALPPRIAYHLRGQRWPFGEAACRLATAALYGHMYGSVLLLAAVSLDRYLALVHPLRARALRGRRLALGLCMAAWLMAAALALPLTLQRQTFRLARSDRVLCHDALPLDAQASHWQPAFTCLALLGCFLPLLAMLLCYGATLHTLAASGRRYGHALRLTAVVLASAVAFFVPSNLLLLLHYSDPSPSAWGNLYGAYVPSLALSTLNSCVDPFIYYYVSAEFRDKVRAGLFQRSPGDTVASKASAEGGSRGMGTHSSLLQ
Kind of experiment: PAR4 FLIPR assay: antagonism of agonist-peptide-induced calcium mobilization in PAR4-expressing HEK293 cells. In kind it is cell-based. To be noted: H-Ala-Phe(4-F)-[…]NH2-induced intracellular calcium mobilization, 11-point curves. In general terms: Calcium assays in cells follow changes in intracellular calcium, usually with a dye or a luminescent sensor.
`COCc1cnc2c(-c3nc4c(C)c(C)c(OC(C)C(C)O)cc4s3)cc(C)cc2n1` (mixture of isomers) [Example 323, 3-((2-(2-(methoxymethyl)-7-methylquinoxalin-5-yl)-4,5-dimethylbenzo[d]thiazol-6-yl)oxy)butan-2-ol]: the IC50 is 15 nM.
With `COCc1cnc2c(-c3nc4c(C)c(C)c(OC(C)CO)cc4s3)cc(C)cc2n1` (racemic) [Example 321, 2-((2-(2-(methoxymethyl)-7-methylquinoxalin-5-yl)-4,5-dimethylbenzo[d]thiazol-6-yl)oxy)propan-1-ol] the figure was 3.1 nM; with `COCc1cnc2c(-c3nc4c(C)c(C)c(OCC(C)O)cc4s3)cc(C)cc2n1` (racemic) [Example 322, 1-((2-(2-(methoxymethyl)-7-methylquinoxalin-5-yl)-4,5-dimethylbenzo[d]thiazol-6-yl)oxy)propan-2-ol], 5.1 nM.
With `COCc1cnc2c(-c3nc4c(C(O)C(C)(C)C)c(C)c(OC)cc4s3)cc(C)cc2n1` (racemic) [Example 328, 1-(6-methoxy-2-(2-(methoxymethyl)-7-methylquinoxalin-5-yl)-5-methylbenzo[d]thiazol-4-yl)-2,2-dimethylpropan-1-ol] the figure was 1.4 nM; with `COc1ccc(NC(=O)OCC(C)Oc2cc3sc(-c4cc(C)cc5nc(OC)cnc45)nc3c(Cl)c2F)cn1` (racemic) [Example 381, 2-((4-chloro-5-fluoro-2-(2-methoxy-7-methylquinoxalin-5-yl)benzo[d]thiazol-6-yl)oxy)propyl (6-methoxypyridin-3-yl)carbamate], 1.4 nM; with `COCC(COc1cc2sc(-c3cc(C)cc4nc(OC)cnc34)nc2cc1F)OC(=O)Nc1cccnc1` (racemic) [Example 516, 1-((5-fluoro-2-(2-methoxy-7-methylquinoxalin-5-yl)benzo[d]thiazol-6-yl)oxy)-3-methoxypropan-2-yl pyridin-3-ylcarbamate (rac)], 2 nM.
With `COc1cnc2c(-c3nc4cc(F)c(OCC(COCC(C)C)OC(=O)Nc5cnc(C)nc5)cc4s3)cc(C)cc2n1` (racemic) [Example 525, 1-((5-fluoro-2-(2-methoxy-7-methylquinoxalin-5-yl)benzo[d]thiazol-6-yl)oxy)-3-isobutoxypropan-2-yl (2-methylpyrimidin-5-yl)carbamate (rac)] the figure was 2.3 nM.
Consider `COCc1cnc2c(-c3nc4c(C(O)c5ccccc5)cc(OC)cc4s3)cc(C)cc2n1` (single isomer, unassigned) [Example 163, (6-methoxy-2-(2-(methoxymethyl)-7-methylquinoxalin-5-yl)benzo[d]thiazol-4-yl)(phenyl)methanol], for which the IC50 was 0.5 nM.
Take `COCc1cnc2c(-c3nc4c(C(O)C(C)(C)C)cc(OC)cc4s3)cc(C)cc2n1` (single isomer, unassigned) [Example 164, 1-(6-methoxy-2-(2-(methoxymethyl)-7-methylquinoxalin-5-yl)benzo[d]thiazol-4-yl)-2,2-dimethylpropan-1-ol]: the IC50 was 0.5 nM.
Take `[2H]C(O)(c1cc(OC)cc2sc(-c3cc(C)cc4nc(COC)cnc34)nc12)C(C)(C)C` (single isomer, unassigned) [Example 169, 1-(6-methoxy-2-(2-(methoxymethyl)-7-methylquinoxalin-5-yl)benzo[d]thiazol-4-yl)-2,2-dimethylpropan-1-ol-1-d1]: the 50% inhibitory concentration (IC50) turned out to be 0.4 nM.
The figure for `[2H]C([2H])([2H])OC([2H])([2H])c1cnc2c(-c3nc4c(C(O)C(C)(C)C)cc(OC)cc4s3)cc(C)cc2n1` (single isomer, unassigned) [Example 170, 1-(6-methoxy-2-(2-(methoxymethyl)-7-methylquinoxalin-5-yl)benzo[d]thiazol-4-yl)-2,2-dimethylpropan-1-ol-d5] is 0.3 nM; for `COc1ccc(NC(=O)OC[C@H](C)Oc2cc3sc(-c4cc(C)cc5nc(OC)cnc45)nc3c(Cl)c2F)cn1` (single isomer, unassigned) [Example 382] it is 1.3 nM; for `COc1cc(C(O)C(F)(F)F)c2nc(-c3cc(C)cc4nc(OC)cnc34)sc2c1` (single isomer, unassigned) [Example 633, 2,2,2-trifluoro-1-(6-methoxy-2-(2-methoxy-7-methylquinoxalin-5-yl)benzo[d]thiazol-4-yl)ethanol] it is 2.6 nM.
The figure for `COc1cc(C(O)C2(C(F)(F)F)CCC2)c2nc(-c3cc(C)cc4nc(OC)cnc34)sc2c1` (single isomer, unassigned) [Example 664] is 0.9 nM; for `COc1cnc2c(-c3nc4cc(F)c(O[C@@H](C)[C@@H](C)OC(=O)Nc5ccc(C(C)O)nc5)nc4s3)cc(C)cc2n1` (single isomer, unassigned) [Example 766] it is 2.9 nM.
The figure for `COc1cnc2c(-c3nc4cc(F)c(O[C@@H](C)[C@@H](C)OC(=O)Nc5ccc(C(C)O)nc5)nc4s3)cc(C)cc2n1` (single isomer, unassigned) [Example 767] is 3.4 nM; for `COc1cnc2c(-c3nc4cc(F)c(O[C@@H](C)[C@@H](C)OC(=O)Nc5ccc(C(N)=O)nc5)cc4s3)cc(C)cc2n1` (stereo in doubt) [Example 391, (2R,3S)-3-((5-fluoro-2-(2-methoxy-7-methylquinoxalin-5-yl)benzo[d]thiazol-6-yl)oxy)butan-2-yl (6-carbamoylpyridin-3-yl)carbamate] it is 2 nM; for `COc1cnc2c(-c3nc4cc(F)c(O[C@@H](C)[C@@H](C)OC(=O)Nc5ccc(C(=O)NCCO)nc5)cc4s3)cc(C)cc2n1` (stereo in doubt) [Example 392, (2R,3S)-3-((5-fluoro-2-(2-methoxy-7-methylquinoxalin-5-yl)benzo[d]thiazol-6-yl)oxy)butan-2-yl (6-((2-hydroxyethyl)carbamoyl)pyridin-3-yl)carbamate] it is 3.1 nM.
For the molecule `CNC(=O)c1cnc2c(-c3nc4cc(F)c(O[C@@H](C)[C@@H](C)OC(=O)Nc5cnc(C)nc5)cc4s3)cc(C)cc2n1` (stereo in doubt) [Example 393, (2R,3S)-3-((5-fluoro-2-(7-methyl-2-(methylcarbamoyl)quinoxalin-5-yl)benzo[d]thiazol-6-yl)oxy)butan-2-yl (2-methylpyrimidin-5-yl)carbamate], the IC50 was 30 nM.
With `Cc1cc(-c2cc3ccccc3o2)c2ncc(OC(F)F)nc2c1` [Example 1, 5-(benzofuran-2-yl)-2-(difluoromethoxy)-7-methylquinoxaline] the figure was 29 nM; with `COc1ccc2oc(-c3cc(C)cc4nc(OC(F)F)cnc34)cc2c1` [Example 2, 2-(difluoromethoxy)-5-(5-methoxybenzofuran-2-yl)-7-methylquinoxaline], 11 nM.
The figure for `Cc1cc(-c2nc3ccccc3o2)c2ncc(OC(F)F)nc2c1` [Example 3, 2-(2-(difluoromethoxy)-7-methylquinoxalin-5-yl)benzo[d]oxazole] is 240 nM; for `Cc1cc(-c2nc3ccccc3s2)c2ncc(OC(F)F)nc2c1` [Example 4, 2-(2-(difluoromethoxy)-7-methylquinoxalin-5-yl)benzo[d]thiazole] it is 17 nM.
As to `Cc1cc(-c2cc3ccccc3[nH]2)c2ncc(OC(F)F)nc2c1` [Example 5, 2-(difluoromethoxy)-5-(1H-indol-2-yl)-7-methylquinoxaline], the half-maximal inhibitory concentration (IC50) was determined as 880 nM.
